How the values were obtained:
HDAC6 = target: T1, HDAC6 (Homo sapiens, UniProt Q9UBN7); test: HDAC6 protein level in MDA-MB-468 cells, Western blot; format: cell-based; details: 14 h
T1 construct: endogenous in cells; host or cells: MDA-MB-468
T1 sequence (Q9UBN7 1-1215): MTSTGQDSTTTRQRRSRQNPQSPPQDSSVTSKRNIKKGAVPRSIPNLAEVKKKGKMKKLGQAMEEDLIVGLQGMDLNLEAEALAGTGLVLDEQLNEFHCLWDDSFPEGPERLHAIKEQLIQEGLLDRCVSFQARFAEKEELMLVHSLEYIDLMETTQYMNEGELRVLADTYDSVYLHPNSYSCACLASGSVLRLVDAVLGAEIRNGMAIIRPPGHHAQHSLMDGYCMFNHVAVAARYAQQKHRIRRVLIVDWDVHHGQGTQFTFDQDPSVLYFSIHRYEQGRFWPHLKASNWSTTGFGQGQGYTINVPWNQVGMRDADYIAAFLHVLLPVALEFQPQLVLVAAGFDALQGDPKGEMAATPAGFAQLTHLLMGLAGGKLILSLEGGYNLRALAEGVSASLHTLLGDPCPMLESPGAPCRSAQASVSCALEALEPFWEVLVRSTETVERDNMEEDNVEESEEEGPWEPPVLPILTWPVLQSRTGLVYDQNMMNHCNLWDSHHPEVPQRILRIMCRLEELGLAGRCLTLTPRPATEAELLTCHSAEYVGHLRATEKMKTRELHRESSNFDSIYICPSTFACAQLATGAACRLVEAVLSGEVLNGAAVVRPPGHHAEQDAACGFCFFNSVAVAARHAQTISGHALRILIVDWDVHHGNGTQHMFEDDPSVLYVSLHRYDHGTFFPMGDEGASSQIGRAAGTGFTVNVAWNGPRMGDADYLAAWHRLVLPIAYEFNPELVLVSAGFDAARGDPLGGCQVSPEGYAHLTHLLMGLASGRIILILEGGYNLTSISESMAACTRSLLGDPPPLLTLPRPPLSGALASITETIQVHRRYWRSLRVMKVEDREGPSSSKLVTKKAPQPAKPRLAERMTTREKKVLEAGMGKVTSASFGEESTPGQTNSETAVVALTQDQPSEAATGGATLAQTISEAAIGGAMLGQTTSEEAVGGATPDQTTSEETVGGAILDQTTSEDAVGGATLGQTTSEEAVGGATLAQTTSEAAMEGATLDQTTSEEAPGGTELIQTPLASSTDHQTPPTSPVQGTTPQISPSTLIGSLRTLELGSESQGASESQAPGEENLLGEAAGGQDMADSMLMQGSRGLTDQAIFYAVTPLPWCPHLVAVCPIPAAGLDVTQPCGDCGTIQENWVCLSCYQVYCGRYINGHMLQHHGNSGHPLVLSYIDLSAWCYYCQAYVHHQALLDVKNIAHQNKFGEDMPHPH
Experimental: (§1) FIG. 3A: Western blot showing HDAC protein levels in MDA-MB-468 cells treated with the indicated concentration of XZ9002 for 14 h. FIG. 3B: pretreatment with 1 μM MG132, or 10 μM VHL032 for 1 h blocked the degradation of HDAC3 by XZ9002 {125 nM}. […] NC: XZ9002-NC. FIG. 3C: time-dependent experiment in MDA-MB-468 cells after treatment with 125 nM XZ9002 at the indicated time points. FIG. 3D: MDA-MB-468 cells were incubated with 125 nM of XZ9002 for 14 h followed by drug washout, and incubation of the cells in drug-free medium for an additional time. Data are presented as representative figures of two independent experiments.
Cell lines were obtained from ATCC and subsequently authenticated. Cells were cultured with DMEM supplemented with 10% bovine calf serum, penicillin to 10 units/mL, and streptomycin to 10 μg/mL. For viability assays, 5,000 cells/well were seeded in 96-well plates. Compounds at a specified concentration or DMSO were added 24 h later. Viability assays were performed 72 h after compound addition using the CellTiter-Glo reagents (Promega). For colony formation assay, cells (˜1,000 cells/well) were seeded in a 24-well plate in quadruplicates. At 24 h after seeding, DMSO, XZ9002, or XZ9002-NC were added at a specified concentration. […]

HDAC1 = HDAC1 (Homo sapiens, UniProt Q13547); test: HDAC1 protein level in breast cancer cell lines, Western blot; format: cell-based; details: MDA-MB-468 cells, 14 h
HDAC1, sequence (Q13547 whole entry): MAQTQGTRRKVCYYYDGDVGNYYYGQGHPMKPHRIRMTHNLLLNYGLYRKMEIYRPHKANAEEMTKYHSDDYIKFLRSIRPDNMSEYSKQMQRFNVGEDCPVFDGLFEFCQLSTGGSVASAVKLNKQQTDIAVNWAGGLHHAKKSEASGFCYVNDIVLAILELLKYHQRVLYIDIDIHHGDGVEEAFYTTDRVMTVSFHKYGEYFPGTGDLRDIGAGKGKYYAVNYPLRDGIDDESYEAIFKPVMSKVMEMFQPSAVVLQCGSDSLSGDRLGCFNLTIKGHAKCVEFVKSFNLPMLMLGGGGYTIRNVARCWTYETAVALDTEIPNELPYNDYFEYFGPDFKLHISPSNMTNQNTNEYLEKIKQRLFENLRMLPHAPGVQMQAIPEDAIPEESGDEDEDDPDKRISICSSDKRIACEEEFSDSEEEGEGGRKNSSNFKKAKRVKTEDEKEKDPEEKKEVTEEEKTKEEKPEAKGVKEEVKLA
Experimental: as §1
The culture of the triple-negative breast cancer cell line MDA-MB-468 and the ER+ breast cancer cell line T47D was exposed to vehicle control (DMSO) and the indicated compounds at specified concentrations for 14 h. Cells were lysed for WB with antibodies against the indicated proteins. Antibodies against acetylated histones at specific sites (H3K27 and H4K5) and acetyl-lysine were used to assess levels of histone acetylation. Levels of HDAC3 were normalized against that of tubulin and % of HDAC3 protein levels in cells treated with the indicated compounds relative to that in DMSO control is shown.
Cell lines were obtained from ATCC and subsequently authenticated. […]

HDAC3 = HDAC3 (Homo sapiens, UniProt O15379); test: HDAC3 degradation in MDA-MB-231 xenograft tumors; format: in vivo; parameters: from tissue; host or cells: MDA-MB-231 xenograft tumours from NSG mice; details: female NSG mice, MDA-MB-231 xenografts, 50 mg/kg i.p., tumors 24 h after dosing
HDAC3, sequence (O15379 whole entry): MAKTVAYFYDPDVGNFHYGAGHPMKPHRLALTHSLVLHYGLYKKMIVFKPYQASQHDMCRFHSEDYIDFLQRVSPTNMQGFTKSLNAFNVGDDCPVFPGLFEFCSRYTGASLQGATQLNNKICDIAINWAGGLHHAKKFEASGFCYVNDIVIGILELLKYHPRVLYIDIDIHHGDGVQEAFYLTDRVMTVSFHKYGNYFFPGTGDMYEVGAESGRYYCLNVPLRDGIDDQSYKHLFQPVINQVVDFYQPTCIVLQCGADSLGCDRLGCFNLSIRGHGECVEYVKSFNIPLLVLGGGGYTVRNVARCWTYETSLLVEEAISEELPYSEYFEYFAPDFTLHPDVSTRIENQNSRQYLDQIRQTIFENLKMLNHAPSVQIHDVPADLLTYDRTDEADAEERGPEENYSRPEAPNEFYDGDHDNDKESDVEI
HDAC3, sequence (Q9Y618 395-498 partner limits assumed): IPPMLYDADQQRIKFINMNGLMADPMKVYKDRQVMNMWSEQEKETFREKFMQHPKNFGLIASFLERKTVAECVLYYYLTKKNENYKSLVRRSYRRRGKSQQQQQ
Experimental: NSG mice bearing MDA-MB-231 xenografts were dosed with vehicle or XZ9002 (50 mg/kg) by i.p. Tumors were dissected from euthanized mice 24 h after dosing. The tumor lysates were analyzed by WB. The quantification is shown in lower panels. ***: p<0.0001 (t-test vs vehicle).

CCCNNC(=O)c1ccc(-c2ccc(NC(=O)CCCCCCC(=O)N[C@H](C(=O)N3C[C@H](O)C[C@H]3C(=O)N[C@@H](C)c3ccc(-c4scnc4C)cc3)C(C)(C)C)cc2)cc1 [XZ9002, N^1—((S)-1-((2S,4R)-4-hydroxy-2-(((S)-1-(4-(4-methylthiazol-5-yl)phenyl)ethyl)carbamoyl)pyrrolidin-1-yl)-3,3-dimethyl-1-oxobutan-2-yl)-N^5-(4′-(2-propylhydrazine-1-carbonyl)-[1,1′-biphenyl]-4-yl)octanediamide]
change in HDAC6 protein level (HDAC6): no significant changes | change in HDAC1 protein level (HDAC1): no significant changes | HDAC3 degradation in xenograft tumor (HDAC3): effectively degrade

— patent US20230181746A1, “BENZOYLHYDRAZIDE-DERIVED HDAC DEGRADERS AS THERAPEUTICS FOR TREATING CANCER AND OTHER HUMAN DISEASES” (University of Florida Research Foundation, Inc., priority 2020, published 2023)
